Tests used:
[1] = system: CP70 (cell line), R179, R182, R585 (primary ovarian cancer explants); experiment: Cell viability, CellTiter 96 Aqueous One Solution Cell Proliferation Assay, ovarian cancer cells; format: cell-based, Human; settings: concentrations up to 10 μg/ml, 24 hr exposure
Protocol: FIG. 1. Comparative cytotoxicity of dehydroequol and Compound I as described herein (Cpd 1) against normal and ovarian cancer cells: CP70 (cell line), R179, R182, R585 (primary ovarian cancer explants) and OSE (normal ovarian surface epithelial cells). […] Both compounds were tested at concentrations up to 10 μg/ml and exposed to cells for 24 hr.
Human EOC cell lines A2780, CP70, and OSE were propagated in RPMI plus 10% fetal bovine serum (FBS) (Gemini Bio-Products, Woodland, Calif.) at 37° C. in a 5% CO2 atmosphere. Primary EOC cells (R179, R182, R585) were isolated from malignant ovarian ascites and cultured as previously described (Kamsteeg et al., 2003). Dehydroequol and Compound 1 (Cpd 1) were obtained from Novogen (Australia). All other reagents were purchased from Sigma Chemical (St. Louis, Mo.). The pan caspase inhibitor Z-VAD-FMK was obtained from R&D Systems (Minneapolis, Minn.).
(§1) Cell viability was evaluated using the CellTiter 96 Aqueous One Solution Cell Proliferation Assay (Promega, Madison, Wis.) according to the manufacturer's instructions. The values from the treated cells were compared with the values generated from the untreated cells and reported as percent viability. Each experiment was performed in triplicate.

[2] = system: caspase 3; experiment: Caspase-Glo 3/7 assay in R182 cells; format: cell-based, Human; settings: R182 ovarian cancer explants; dose response and duration of exposure (5 μg/ml, 0-25 hr)
Protocol: FIG. 2. Comparative induction of caspase 3 in R182 ovarian cancer explants by Cpd 1 and dehydroequol using either dose response (A) or duration of exposure (B). Caspase 3 activity was assessed using the Caspase-Glo 3/7 assays.
(§2) For caspase activity assays, 10 μg of protein in 50 μL total volume was mixed with 50 μL of equilibrated Caspase-Glo 3/7, 8, or 9 reagents (Promega). After incubating at room temperature for 1 hour, luminescence was measured using TD 20/20 Luminometer (Turner Designs, Sunnyvale, Calif.). Blank values were subtracted and fold-increase in activity was calculated based on activity measured from untreated cells. Each sample was measured in triplicate.

[3] = system: caspase 9; experiment: Caspase-Glo 9 assay in R182 cells; format: cell-based, Human; settings: R182 ovarian cancer explants; dose response and duration of exposure (5 μg/ml, 0-25 hr)
Protocol: FIG. 3. Comparative induction of caspase 9 in R182 ovarian cancer explants by Cpd 1 and dehydroequol using either dose response (A) or duration of exposure (B). Caspase 9 activity was assessed using the Caspase-Glo 9 assay.
as §2

[4] = system: caspase 8; experiment: Caspase-Glo 8 assay in R182 cells; format: cell-based, Human; settings: R182 ovarian cancer explants; dose response and duration of exposure (5 μg/ml, 0-25 hr)
Protocol: FIG. 4. Comparative induction of caspase 8 in R182 ovarian cancer explants by Cpd 1 and dehydroequol using either dose response (A) or duration of exposure (B). Caspase 8 activity was assessed using the Caspase-Glo 8 assay.
as §2

[5] = system: ovarian cancer cells; experiment: Cell viability in presence of pan caspase inhibitor ZVAD-FMK; format: cell-based, Human; settings: ZVAD-FMK 0.5 μg/ml
Protocol: FIG. 5. Comparative cell viability plots of dehydroequol (A) and Cpd 1 (B) treated cells in the presence and absence of the pan caspase inhibitor ZVAD-FMK (0.5 μg/ml).
as §1

[6] = system: caspase 3; experiment: Caspase 3 activity in xenograft tumour sections; format: in vivo, SCID mice; settings: tumour-bearing mice; not shown

## Oc1ccc(C2=Cc3ccc(O)cc3OC2)cc1 [Dehydroequol, reference compound]
[1]
  cell viability of ovarian cancer cells: does not exhibit this pan activity
[2]
  caspase 3 activity: activation of caspase 3 is time (5 μg/ml) and dose dependent
[3]
  caspase 9 activity: activation of caspase 3 is time (5 μg/ml) and dose dependent
[4]
  caspase 8 activity: activation of caspase 8 is time (5 μg/ml) and dose dependent
[5]
  cell death in the presence of pan caspase inhibitor ZVAD-FMK: apoptosis was inhibited
[6]
  caspase 3 activity in tumour sections: observed only in tumour sections taken from mice dosed with dehydroequol
